Here are results for 25 compounds from patent US12570675B2, “Boronic acid compounds” (LG CHEM, LTD., priority 2020, dated 2026).

The assay deals with Proteasome chymotrypsin-like activity (S26 protein from RPMI8226 cells) (Homo sapiens, UniProt P28074). In kind it is biochemical. The following applies: S26 protein from RPMI8226 cell extract 2 ug/well, substrate 20 uM, 37° C., 90 minutes; read-out: Proteasome chymotrypsin-like activity inhibition IC50. Put shortly:
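Inhibition is measured in crude proteasome (S26) from RPMI8226 cells at 2 ug/well, using 20 uM substrate specific to each activity: Suc-LLVY-AMC for chymotrypsin-like, Z-LLE-AMC for caspase-like. Compounds span a dilution series from 10 uM.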

Molecules are shown by their SMILES.

Proteasome chymotrypsin-like activity (S26 protein from RPMI8226 cells), sequence (P28074 60-263 limits assumed): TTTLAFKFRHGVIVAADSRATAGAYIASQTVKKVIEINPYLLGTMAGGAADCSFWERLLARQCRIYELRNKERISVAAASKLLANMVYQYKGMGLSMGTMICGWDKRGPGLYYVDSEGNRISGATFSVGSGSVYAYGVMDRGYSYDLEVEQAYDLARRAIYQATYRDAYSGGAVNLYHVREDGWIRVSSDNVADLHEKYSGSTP

On to `Cc1cccc(CC2(C(=O)N[C@@H](CC(C)C)B(O)O)CC(CNC(=O)c3cc(C)nn3C(C)C)=NO2)c1` (stereo partly drawn) [Example 234, ((1R)-1-(3-((1-isopropyl-3-methyl-1H-pyrazol-5-carboxamido)methyl)-5-(3-methylbenzyl)-4,5-dihydroisoxazol-5-carboxamido)-3-methylbutyl)boronic acid], for which the IC50 was < 10 nM.

With `Cc1cccc(CC2(C(=O)N[C@@H](CC(C)C)B(O)O)CC(CNC(=O)c3c(Cl)c(C)nn3C(C)C)=NO2)c1` (stereo partly drawn) [Example 244, ((1R)-1-(3-((4-chloro-1-isopropyl-3-methyl-1H-pyrazol-5-carboxamido)methyl)-5-(3-methylbenzyl)-4,5-dihydroisoxazol-5-carboxamido)-3-methylbutyl)boronic acid], the IC50 is < 10 nM.

With `COc1cccc(CC2(C(=O)N[C@@H](CC(C)C)B(O)O)CC(CNC(=O)c3cc(C)nn3C(C)C)=NO2)c1` (stereo partly drawn) [Example 232, ((1R)-1-(3-((1-isopropyl-3-methyl-1H-pyrazol-5-carboxamido)methyl)-5-(3-methoxybenzyl)-4,5-dihydroisoxazol-5-carboxamido)-3-methylbutyl)boronic acid], the IC50 was < 10 nM.

For the compound `Cc1cccc(COCC2=NOC(Cc3ccccc3)(C(=O)N[C@@H](CC(C)C)B(O)O)C2)c1` (stereo partly shown) [Example 270], the IC50 is < 10 nM.

`COc1cccc(C(=O)NCC2=NOC(Cc3ccccc3)(C(=O)N[C@@H](CC(C)C)B(O)O)C2)n1` (stereo partly shown) [Example 322]: the half-inhibitory concentration (IC50) was < 10 nM.

In the case of `CC(C)C[C@H](NC(=O)C1(Cc2ccccc2)CC(CNC(=O)c2cccc(C(F)(F)F)c2)=NO1)B(O)O` (stereo partly shown) [Example 280], the IC50 was < 10 nM.

Turning to `O=C(NCC1=NOC(Cc2ccccc2)(C(=O)N[C@@H](Cc2ccccc2)B(O)O)C1)c1cccc(C(F)(F)F)c1` (stereo partly drawn) [Example 281, ((1R)-1-(5-benzyl-3-((3-(trifluoromethyl)benzamido)methyl)-4,5-dihydroisoxazol-5-carboxamido)-2-phenylethyl)boronic acid], the IC50 was < 10 nM.

In the case of `CC(C)C[C@H](NC(=O)C1CC(c2cnccn2)=NO1)B(O)O` (stereo partly drawn) [Example 2, ((1R)-3-methyl-1-(3-(pyrazin-2-yl)-4,5-dihydroisoxazol-5-carboxamido)butyl)boronic acid], the IC50 is < 1000 nM.

Turning to `CC(C)C[C@H](NC(=O)C1(Cc2c(F)cccc2F)CC(CNC(=O)c2nccc3ccccc23)=NO1)B(O)O` (stereo partly drawn) [Example 174, ((1R)-1-(5-(2,6-difluorobenzyl)-3-((isoquinolin-1-carboxamido)methyl)-4,5-dihydroisoxazol-5-carboxamido)-3-methylbutyl)boronic acid], the half-inhibitory concentration (IC50) was < 10 nM.

Consider `CC(C)C[C@H](NC(=O)C1(CC(C)C)CC(CNC(=O)c2nccc3ccccc23)=NO1)B(O)O` (stereo partly drawn) [Example 91, ((1R)-1-(5-isobutyl-3-((isoquinolin-1-carboxamido)methyl)-4,5-dihydroisoxazol-5-carboxamido)-3-methylbutyl)boronic acid], for which the IC50 is < 25 nM.

In the case of `CC(C)C[C@H](NC(=O)C1CC(c2cccc3ccccc23)=NO1)B(O)O` (stereo partly drawn) [Example 19, ((1R)-3-methyl-1-(3-(naphthalen-1-yl)-4,5-dihydroisoxazol-5-carboxamido)butyl)boronic acid], the IC50 was < 100 nM.

Take `CC(C)C[C@H](NC(=O)C1CC(CNC(=O)Cc2ccccc2)=NO1)B(O)O` (stereo partly drawn) [Example 79, ((1R)-3-methyl-1-(3-((2-phenylacetamido)methyl)-4,5-dihydroisoxazol-5-carboxamido)butyl)boronic acid]: the half-inhibitory concentration (IC50) is < 100 nM.

Turning to `O=C(NCC1=NOC(Cc2ccccc2)(C(=O)N[C@@H](Cc2ccccc2)B(O)O)C1)c1cccn2ccnc12` (stereo partly drawn) [Example 300, ((1R)-1-(5-benzyl-3-((imidazo[1,2-a]pyridin-8-carboxamido)methyl)-4,5-dihydroisoxazol-5-carboxamido)-2-phenylethyl)boronic acid], the 50% inhibitory concentration (IC50) is < 10 nM.

Take `COc1ccc(C(=O)NCC2=NOC(Cc3ccccc3)(C(=O)N[C@@H](Cc3ccccc3)B(O)O)C2)cc1` (stereo partly drawn) [Example 283, ((1R)-1-(5-benzyl-3-((4-methoxybenzamido)methyl)-4,5-dihydroisoxazol-5-carboxamido)-2-phenylethyl)boronic acid]: the IC50 is < 10 nM.

Consider `COc1cccc(COCC2=NOC(Cc3ccccc3)(C(=O)N[C@@H](CC(C)C)B(O)O)C2)c1` (stereo partly shown) [Example 272], for which the IC50 is < 10 nM.

For `Cc1cccc(CC2(C(=O)N[C@@H](CC(C)C)B(O)O)CC(CNC(=O)c3cc(C)nn3C3CCCC3)=NO2)c1` (stereo partly drawn) [Example 243, ((1R)-1-(3-((1-cyclopentyl-3-methyl-1H-pyrazol-5-carboxamido)methyl)-5-(3-methylbenzyl)-4,5-dihydroisoxazol-5-carboxamido)-3-methylbutyl)boronic acid], the concentration for half-maximal inhibition (IC50) was < 10 nM.

For `O=C(NCC1=NOC(Cc2ccccc2)(C(=O)N[C@@H](Cc2ccccc2)B(O)O)C1)c1cccc2nccn12` (stereo partly drawn) [Example 302, ((1R)-1-(5-benzyl-3-((imidazo[1,2-a]pyridin-5-carboxamido)methyl)-4,5-dihydroisoxazol-5-carboxamido)-2-phenylethyl)boronic acid], the IC50 is < 10 nM.

For the compound `O=C(NCC1=NOC(Cc2ccccc2)(C(=O)N[C@@H](Cc2ccccc2)B(O)O)C1)c1cc(Cl)ccc1Cl` (stereo partly drawn) [Example 296, ((1R)-1-(5-benzyl-3-((2,5-dichlorobenzamido)methyl)-4,5-dihydroisoxazol-5-carboxamido)-2-phenylethyl)boronic acid], the IC50 was < 10 nM.

For `CC(C)C[C@H](NC(=O)C1CC(c2ccc(-c3cccnc3)cc2)=NO1)B(O)O` (stereo partly drawn) [Example 31, ((1R)-3-methyl-1-(3-(4-(pyridin-3-yl)phenyl)-4,5-dihydroisoxazol-5-carboxamido)butyl)boronic acid], the IC50 was < 50 nM.

Regarding `CC(C)C[C@H](NC(=O)C1(Cc2ccccc2)CC(CNC(=O)c2cccc3ncnn23)=NO1)B(O)O` (stereo partly shown) [Example 312], the concentration for half-maximal inhibition (IC50) is < 25 nM.

Take `CC(C)C[C@H](NC(=O)C1(Cc2ccccc2)CC(CNC(=O)c2cnn(C)c2)=NO1)B(O)O` (stereo partly drawn) [Example 220, ((1R)-1-(5-benzyl-3-((1-methyl-1H-pyrazol-4-carboxamido)methyl)-4,5-dihydroisoxazol-5-carboxamido)-3-methylbutyl)boronic acid]: the IC50 was < 10 nM.

Consider `CC(C)C[C@H](NC(=O)C1(Cc2ccccc2)CC(CNC(=O)c2cccc(C#N)n2)=NO1)B(O)O` (stereo partly shown) [Example 323], for which the concentration for half-maximal inhibition (IC50) was < 10 nM.

For the compound `Cc1nn(C)cc1C(=O)NCC1=NOC(Cc2ccccc2)(C(=O)N[C@@H](CC(C)C)B(O)O)C1` (stereo partly drawn) [Example 226, ((1R)-1-(5-benzyl-3-((1,3-dimethyl-1H-pyrazol-4-carboxamido)methyl)-4,5-dihydroisoxazol-5-carboxamido)-3-methylbutyl)boronic acid], the IC50 was < 25 nM.

On to `CC(C)C[C@H](NC(=O)C1CC(Cc2ccccc2)=NO1)B(O)O` (stereo partly drawn) [Example 8, ((1R)-1-(3-benzyl-4,5-dihydroisoxazol-5-carboxamido)-3-methylbutyl)boronic acid], for which the half-maximal inhibitory concentration (IC50) was < 250 nM.

With `CC(C)C[C@H](NC(=O)C1(C(F)(F)c2ccccc2)CC(CNC(=O)c2cccn3ccnc23)=NO1)B(O)O` (stereo partly drawn) [Example 156, ((1R)-1-(5-(difluoro(phenyl)methyl)-3-((imidazo[1,2-a]pyridin-8-carboxamido)methyl)-4,5-dihydroisoxazol-5-carboxamido)-3-methylbutyl)boronic acid], the IC50 is < 25 nM.
